Holding throughout (test): inhibition of tumour cell growth, NCI panel, 48 h
Assay [1] concerns NCI-H23 lung.
Assay [2] concerns SF-268 CNS.
The test system of assay [3] is UO-31 renal.
Assay [4] relates to EKVX NSCLC.
The test system of assay [5] is OVCAR-3 ovarian.
Assay [6] relates to HCT-116 colon.
Assay [7] has as its system DU-145 prostate.
Assay [8] deals with UACC-62 melanoma.
Assay [9] deals with HOP-92 NSCLC.
Assay [10] concerns K-562 leukemia.

Values joined by “and” are separate entries in the source; they are usually repeats but may differ in a detail not shown here. Equal entries are not always repeated.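 Briefly, cells in 96-well plates were exposed to five compound concentrations for 48 h, and endpoints were estimated by linear interpolation. GI50 is the concentration that inhibits growth by half. Definition used: TGI = concentration required for complete inhibition of growth.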

As to `CC(=O)Oc1ccc2c3c1O[C@H]1[C@H](O)CC[C@@]4(O)[C@@H](C2)N(C)CC[C@]314`, the TGI in [1], in assay [2], in assay [3], in assay [4], in assay [5] and in assay [6] was above 100 µM throughout. Also, the TGI in [7], in [8] and in assay [9] was above 100 µM in each case.

Turning to `Cc1ccc(N(C)S(=O)(=O)c2ccccc2[N+](=O)[O-])cc1`, the TGI in assay [1], in assay [2], in assay [3], in [4], in assay [5] and in assay [6] was above 100 µM throughout. Further, in assay [7], the TGI was above 100 µM.

In the case of `CN(C)Cc1cc(N=Nc2ccc(Cl)cc2)cc(CN(C)C)c1O`, the TGI in assay [1] was determined as 40.7 µM; in [10], 6.75 µM; in assay [2], 30.3 µM; in assay [3], 7.23 µM; in assay [5], 6.78 µM; in assay [6] it was 17.5 µM. In addition, the TGI was 35.4 µM in [7], 30.2 µM in [8] and 21.7 µM in assay [9].

Regarding `CC1(C)[C@@H]2C[C@H]1c1cnc(-c3ccccn3)cc1C2CCCCC[C@@H]1c2cc(-c3ccccn3)ncc2[C@@H]2C[C@H]1C2(C)C` (some centres undefined), the TGI in [10] was above 100 µM; in assay [2], above 100 µM; in assay [3] it was above 22.2 µM; in assay [4], above 100 µM; in assay [5], above 100 µM; in assay [6], 31.3 µM. In addition, the TGI in assay [7] was above 100 µM; in [8], above 34 µM.

For the compound `COc1ccc2nc3cccc([N+](=O)[O-])c3c(NCCCO)c2c1`, the GI50 in assay [1] was 0.0117 µM; in assay [2], 0.00101 µM; in [3] it was 0.0017 µM; in assay [8], 0.00294 µM; in assay [9], 0.0154 µM. The TGI in assay [1] was 0.05 µM; in assay [3] it was 0.00749 µM and 0.0237 µM; in assay [6] it was 1.01 µM; in assay [7], 15.6 µM; in assay [8] it was 0.0151 µM and 0.0185 µM; in [9], 0.0565 µM.

Consider `CC1=C(C(=O)N[C@@H](CC(C)C)C(=O)O)N2C(=O)[C@@H](NC(=O)C(N)c3ccccc3)[C@H]2SC1` (some centres undefined), for which the TGI in assay [10], in assay [2], in assay [4], in assay [5], in assay [7] and in [8] was above 100 µM throughout. The compound further showed a TGI in assay [9] above 100 µM.

For the compound `O=C1CC(=O)NC(=NNS(=O)(=O)c2ccc(Cl)cc2)N1`, the TGI in [1], in assay [10], in [2], in assay [3], in assay [5] and in assay [6] was above 100 µM in each case. The TGI in assay [7], in assay [8] and in [9] was above 100 µM in each case.

`C#CC1(O)CCCCCCCCC2(CCCCCCCC1)OCCO2`: the TGI in assay [1] was 33.9 µM; in assay [10], 43.6 µM; in assay [2], 34.2 µM; in assay [4], 32.6 µM; in [5], 29.3 µM; in assay [6] it was 30.4 µM. The TGI in assay [7] was found to be 31.1 µM; in [8] it was 28.6 µM; in assay [9], 33.3 µM.

On to `Cc1ccc(C(=O)N/N=C(\N=Nc2ccc(C(=O)O)cc2)c2ccc(N(CCC#N)CCC#N)cc2C)cc1`, for which the TGI in assay [1], in [10], in assay [3], in assay [4], in assay [5] and in assay [6] was above 100 µM in each case. The TGI in assay [7] and in [9] was above 100 µM each time.

As for `CC[C@@]1(O)C(=O)OCc2c1cc1n(c2=O)Cc2c-1nc1ccccc1c2/C=N/NC(=O)c1ccc(N)cc1`, the TGI in [1] was 1.48 µM; in assay [10], above 31.6 µM; in assay [2], above 100 µM; in [3], 25.6 µM; in assay [4], above 100 µM; in assay [5], above 100 µM. Further, the TGI worked out at 12 µM in assay [6], 16.8 µM in assay [7] and 1.94 µM in assay [8].

Take `Cc1cc(S(=O)(=O)/N=C(\[N-]S(=O)(=O)c2cc(Cl)sc2Cl)[n+]2ccc(N(C)C)cc2)c(S)cc1Cl`: the TGI in [1] is above 100 µM; in assay [10], above 100 µM; in assay [2] it was above 100 µM; in [3] it was 56 µM; in assay [4], above 100 µM; in assay [5] it was above 100 µM. In addition, the values for the TGI in assay [6] and in [7] were 55.5 µM and above 100 µM, respectively.

With `CC(=O)CC1=C(OC(C)C)C2(OCCO2)C1O` (centres undefined), the TGI in [1], in assay [2], in [3], in assay [4], in assay [5] and in assay [6] was above 100 µM throughout. The TGI in assay [7], in assay [8] and in assay [9] was above 100 µM throughout.

With `ON=C(CC(O)(C(F)(F)Cl)C(F)(F)Cl)CC(O)(C(F)(F)Cl)C(F)(F)Cl`, the TGI in assay [1], in [10], in [2], in assay [3], in assay [4] and in [5] was above 10 µM throughout. The TGI in assay [6], in assay [7] and in [8] was above 10 µM throughout.

As to `Cc1ccc(N/C(SCc2ccccc2)=C(\C(Cl)=C(Cl)Cl)[N+](=O)[O-])c(C)c1`, the TGI was 38.5 µM in [1]; 29.8 µM in assay [2]; 63.5 µM in assay [3]; above 100 µM in [4]; 40.2 µM in assay [5]; 37 µM in assay [6]. For the same compound, the TGI in assay [7] and in assay [8] was above 100 µM throughout.

Turning to `CC(=O)OC(Cc1c(O)c2c(C)cccc2oc1=O)C(C)(C)O` (centres undefined), the TGI in assay [1], in assay [10], in assay [2], in assay [3], in assay [4] and in [5] was above 100 µM each time. In addition, the TGI in assay [6], in [7] and in assay [8] was above 100 µM throughout.

The values above are taken from PubChem BioAssay (NCI).
